One series deals with T1, ENL YEATS (Homo sapiens, UniProt Q03111).
T1 construct: final concentrations of 100 nM His-ENL YEATS, 100 nM Biotin-ENL-S1
T1 sequence (Q03111 1-138 limits assumed): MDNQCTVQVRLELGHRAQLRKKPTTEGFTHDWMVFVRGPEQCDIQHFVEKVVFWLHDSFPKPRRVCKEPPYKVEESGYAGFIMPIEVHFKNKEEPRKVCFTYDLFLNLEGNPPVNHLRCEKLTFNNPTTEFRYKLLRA
The series is described as follows: AlphaScreen assay with biotinylated ENL-S1 peptide. Particulars: inhibition of ENL YEATS binding to ENL-S1 peptide; mean ± SD, n = 3; read-out: Alpha IC50 (nM) for ENL YEATS. Here is the method:
The AlphaScreen assay was carried out in 384-well plates. Manual assay setup was performed in a 40 μL reaction buffer (50 mM HEPES pH 7.4, 100 mM NaCl, 0.1% bovine serum albumin, and 0.05% CHAPS) with final concentrations of 100 nM His-ENL YEATS, 100 nM Biotin-ENL-S1, and 20 μg/mL of AlphaScreen donor and acceptor beads. The protein, peptide, and compounds were mixed and incubated for 1 h at room temperature and then incubated for 30 min in dark after adding the α beads. AlphaScreen-signals were detected by a multimode microplate reader (BioTeK Synergy Neo2) equipped with an Alpha-laser (PerkinElmer).

Series [1] can be described thus: Body weight of xenografted NSG mice under treatment. The class given is in vivo. From the text: Animal studies were approved by the Texas A&M’s Institutional Animal Care and Use Committees. The 5 week-old female NSG mice (NOD.Cg-PrkdcscidIl2rgtm1Wjl/SzJ, Jackson Laboratory #005557) were ordered and kept under pathogen-free conditions for 1 week with free access to food and water after arrival for acclimation. Tumor models in these mice were then built by engrafting 1 × 10^6 MOLM-13-Luc cells (BPS Bioscience, 78372) through tail vein injection. Tumors were allowed to grow for 6 days, and then applied for treatment by oral gavage daily (day 0 was the beginning of treatment). Dosage of 200 or 400 mg/kg (vehicle of 5% DMSO, 45% PEG400, 2.5% Tween 80, and 47.5% water) was applied. Tumor growth was evaluated by bioluminescent imaging (BLI) using an IVIS In Vivo Imaging System by intraperitoneal injection of 150 mg/kg D-Luciferin potassium salt (MedChemExpress, HY-12591B). Their body weights were recorded every 2–3 days. Surviving mice were counted every day and the mortality was calculated. No animal was excluded from any of the analyses. The investigators were not blinded to allocation during experiments and outcome assessment.

Another series deals with T2, NLuc-ENL YEATS (Homo sapiens, UniProt Q03111).
T2 construct: DNA encoding the ENL YEATS domain (aa 1–148) was cloned into an NLuc containing plasmid; expressed in transfected cells
T2 sequence (Q03111 1-148): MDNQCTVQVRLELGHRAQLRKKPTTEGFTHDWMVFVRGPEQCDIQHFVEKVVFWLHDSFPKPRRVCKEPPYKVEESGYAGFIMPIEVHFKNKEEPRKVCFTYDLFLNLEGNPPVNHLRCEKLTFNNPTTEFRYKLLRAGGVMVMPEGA
The series is described as follows: ENL-NanoBRET inhibitor competitive assay. It is filed as cell-based. Particulars: HEK293T cells stably expressing NLuc-ENL YEATS, 1 μM Tracer 2, 2 h; mean ± SD, n = 3. The method, then: Approximately 1.8 × 10^4 HEK293T cells (100 μL) stably expressing NLuc-ENL YEATS were seeded into a white nonbinding 96-well assay plate and incubated overnight at 37 °C in a humidified 5% CO2 atmosphere. After removal of the medium, the cells were added with a tracer (with or without excess of unlabeled compound) in the Opti-MEM with 0.1% DMSO. After incubation at 37 °C for 2 h the assay plate was equilibrated at room temperature for 15 min. For BRET detection, the NanoGlo Substrate and the extracellular NanoLuc inhibitor (Promega, N2160) were diluted with Opti-MEM as described in protocol to afford detection solution. 50 μL of the detection solution was added per well and the plate was incubated for 3 min at room temperature. The donor emission was measured at 450 nm and the acceptor emission at 610 nm using a BioTek SYNERGY neo2 multimode reader. The BRET ratio was calculated according to the following formula: BRET ratio = [(acceptorsample/donorsample) – (acceptorno-tracer control/donorno-tracer control)] × 1000.
Sample procedures were followed for cell seeding as described in the previously described tracer affinity assay. After removal of the medium, the cells were added with a tracer in the medium (1.1 μM, 100 μL) and varied concentrations of a test compound in 0.1% DMSO (10 μL). The plate was thoroughly mixed on an orbital shaker for 15 s at 900 rpm. Then the cells were incubated at 37 °C, 5% CO2 for 2 h for BRET ratio detection as described previously.
For orientation: In BRET a luciferase serves as donor, and the signal depends on an acceptor being close.

Another series in a line: PK analysis in mice. It is filed as in vivo. Particulars: plasma; for half-life at 24 h: read-out: t1/2 (h), PO (converted). Here is the method: Male CD-1 mice were used in the PK study. A compound was dissolved in a mixed solution containing 75% PEG300 and 25% D5W (5% dextrose in distilled water) or another solution containing 0.5% methyl cellulose and 0.5% Tween 80 in water at indicated dosage for i.v. and p.o. administrations, respectively. Three mice were used for each administration. Blood samples were taken from a vein at different time points up to 24 h after dosing, collected in tubes coated with an anticoagulant, and centrifuged at 1.5 × 10^4 g for 5 min to obtain plasma samples. Acetonitrile-containing internal standard (Labetalol, 100 ng/mL) was added to the plasma to precipitate proteins. The samples were subjected to vortex mixing for 10 min and then centrifugation at 4 °C for 15 min at 3220g. Then clear supernatants were analyzed by HPLC-MS/MS.

Series [2] can be described thus: Cell toxicity assay (CCK-8), Jurkat. It is filed as cell-based. Particulars: human, Jurkat cells; for IC50 at 8 days: 8 day treatment, n = 3, read-out: CC50 Jurkat (Cellular IC50, 8-days incubation). Here is the method: Approximately 1 × 10^4 JURKAT, MOLM-13, MV4-11 and HEK293T cells in RPMI 1640 (no phenol red) (100 μL) were added to a 96-well plate and treated with DMSO or a compound at indicated concentrations for 72 h or 8 days. Cell viability was measured using the CCK-8 kit (Abcam, ab228554) according to the manufacturer’s instructions.

Where [3] appears, read: mouse, male CD-1 mice, PO 20 mg/kg, read-out: AUC0–inf, oral.
Where [4] appears, read: mouse, male CD-1 mice, PO 20 mg/kg.

Molecules are shown by their SMILES. Like-named read-outs stand apart in the source and are kept apart here. Bounds are passed on as bounds.

Turning to `CC(C)[C@H]1CCN1Cc1cc2cnc(NC(=O)c3ccc4nncn4c3)cc2[nH]1` [SR-C-107 (R), (R)-N-(2-((2-Isopropylazetidin-1-yl)methyl)-1H-pyrrolo[3,2-c]pyridin-6-yl)-[1,2,4]triazolo[4,3-a]pyridine-6-carboxamide], the IC50 – broadly, the concentration that inhibits the measured activity by half – at ENL YEATS was 40 nM; on NLuc-ENL YEATS, 0.59 µM. For the same molecule, the “tolerability / body weight loss” value in series [1] (200 mg/kg PO QD) is given as “no significant body weight loss observed”. Also, the Cmax in “PK analysis in mice” (male, CD-1, mouse, mice, PO 20 mg/kg, corresponds to 285 ng/mL, read-out: oral Cmax expressed as effective concentration) came out at 750 nM; in the series “PK analysis in mice” (mouse, male CD-1 mice, PO 20 mg/kg, read-out: Cmax, oral), 285 ng/mL. Moreover, in “PK analysis in mice” (setting [3]), the AUC(0-inf) turned out to be 808 ng·h/mL. For the same molecule, the half-life at 24 h in the series “PK analysis in mice” (setting [4]) is 1.41 h. In addition, the IC50 at 8 days in series [2] was > 64 µM.

As for `CC(C)C1CCN1Cc1ccc(CNC(=O)c2ccc3nncn3c2)cc1` (stereo not drawn) [inhibitor 13], the IC50 at ENL YEATS was 1260 ± 128 nM; at NLuc-ENL YEATS it was 4.29 µM. Also, the “tolerability / body weight loss” value in series [1] (200 mg/kg PO QD) is recorded as “no significant body weight loss observed”; in series [1] (400 mg/kg PO QD), “without significant body weight loss until day 15”. Further, the half-life in the series “PK analysis in mice” (mouse, male CD-1 mice, IV 20 mg/kg, read-out: t1/2, IV (converted)) was 1.05 ± 0.03 h. Further, the Cmax at 24 h in “PK analysis in mice” (setting [4]) was determined as 2080 ng/mL. For the same molecule, the AUC(0-inf) at 24 h in “PK analysis in mice” (setting [3]) was determined as 5140 ng·h/mL. Moreover, the half-life at 24 h in “PK analysis in mice” (setting [4]) is 0.84 h. Besides, the CC50 (in general, the concentration at which the toxic effect on the cells reaches its halfway point) at 72 h in series [2] (72 h treatment (superscript a)) was > 64 µM. In addition, the half-maximal inhibitory concentration (IC50) at 8 days in series [2] worked out at 22 ± 1.79 µM.

Values taken from article PMC11613437, “Prioritization of Eleven-Nineteen-Leukemia Inhibitors as Orally Available Drug Candidates for Acute Myeloid Leukemia” (Journal of Medicinal Chemistry, 2024).
